Assay results from patent publication US20260262643A1, “HERBICIDAL BENZOXAZINES” (FMC CORPORATION, priority 2022, published 2026).

How the values were obtained:
[1] = test system: barnyardgrass; assay: Test D flooded paddy test; assay type: in vivo, Echinochloa crus-galli; conditions: 250 g ai/ha, applied to paddy water, visual rating after 13 to 14 days, scale 0 to 100 (0 no effect, 100 complete control)
Method: (§1) Plant species in the flooded paddy test selected from barnyardgrass (Echinochloa crus-galli), ducksalad (Heteranthera limosa), rice (Oryza sativa), and sedge, umbrella (small-flower umbrella sedge, Cyperus difformis) were grown to the 2-leaf stage for testing. At time of treatment, test pots were flooded to 3 cm above the soil surface, treated by application of test compounds directly to the paddy water, and then maintained at that water depth for the duration of the test. Treated plants and controls were maintained in a greenhouse for 13 to 14 days, after which time all species were compared to controls and visually evaluated. Plant response ratings, summarized in Table D, are based on a scale of 0 to 100 where 0 is no effect and 100 is complete control. A dash (-) response means no test result.

[2] = test system: rice; assay: Test D flooded paddy test; assay type: in vivo, Oryza sativa; conditions: 250 g ai/ha, applied to paddy water, visual rating after 13 to 14 days, scale 0 to 100 (0 no effect, 100 complete control)
Method: as §1

[3] = test system: sedge, umbrella; assay: Test D flooded paddy test; assay type: in vivo, Cyperus difformis; conditions: 250 g ai/ha, applied to paddy water, visual rating after 13 to 14 days, scale 0 to 100 (0 no effect, 100 complete control)
Method: as §1

[4] = test system: ducksalad; assay: Test D flooded paddy test; assay type: in vivo, Heteranthera limosa; conditions: 250 g ai/ha, applied to paddy water, visual rating after 13 to 14 days, scale 0 to 100 (0 no effect, 100 complete control)
Method: as §1

[5] = test system: horseweed; assay: Test C postemergence; assay type: in vivo, Erigeron canadensis; conditions: 10 days, 0 to 100 scale (0 no effect, 100 complete control)
Procedure, shortened: (§2)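 Visual injury ratings on a 0–100 scale (100 = complete control) were made against untreated controls 10 days after treatment in the greenhouse. Compounds, formulated with surfactant in non-phytotoxic solvent, were sprayed on soil preemergence or onto one- to two-leaf plants 2–10 cm tall postemergence.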

[6] = test system: barnyardgrass; assay: Test C preemergence; assay type: in vivo, Echinochloa crusgalli
Procedure, shortened: as §2

[7] = test system: galium; assay: Test C postemergence; assay type: in vivo, Galium aparine; conditions: 10 days, 0 to 100 scale (0 no effect, 100 complete control)
Procedure, shortened: as §2

[8] = test system: kochia; assay: Test C preemergence; assay type: in vivo, Bassia scoparia
Procedure, shortened: as §2

[9] = test system: soybean; assay: Test C postemergence; assay type: in vivo, Glycine max; conditions: 500 g ai/ha, postemergence, 10 days, 0 to 100 scale (0 no effect, 100 complete control)
Procedure, shortened: as §2

[10] = test system: green foxtail; assay: Test C preemergence; assay type: in vivo, Setaria viridis
Procedure, shortened: as §2

[11] = test system: wheat; assay: Test C preemergence; assay type: in vivo, Triticum aestivum
Procedure, shortened: as §2

[12] = test system: pigweed, palmer; assay: Test C preemergence; assay type: in vivo, Amaranthus palmeri
Procedure, shortened: as §2

[13] = test system: blackgrass; assay: Test C postemergence; assay type: in vivo, Alopecurus myosuroides; conditions: 10 days, 0 to 100 scale (0 no effect, 100 complete control)
Procedure, shortened: as §2

[14] = test system: pigweed, palmer; assay: Test C postemergence; assay type: in vivo, Amaranthus palmeri; conditions: 10 days, 0 to 100 scale (0 no effect, 100 complete control)
Procedure, shortened: as §2

[15] = test system: ryegrass, Italian; assay: Test C postemergence; assay type: in vivo, Lolium multiflorum; conditions: 10 days, 0 to 100 scale (0 no effect, 100 complete control)
Procedure, shortened: as §2

[16] = test system: ryegrass, Italian; assay: Test C preemergence; assay type: in vivo, Lolium multiflorum
Procedure, shortened: as §2

[17] = test system: wheat; assay: Test C postemergence; assay type: in vivo, Triticum aestivum; conditions: 10 days, 0 to 100 scale (0 no effect, 100 complete control)
Procedure, shortened: as §2

[18] = test system: soybean; assay: Test C preemergence; assay type: in vivo, Glycine max
Procedure, shortened: as §2

[19] = test system: ragweed; assay: Test C postemergence; assay type: in vivo, Ambrosia artemisiifolia; conditions: 10 days, 0 to 100 scale (0 no effect, 100 complete control)
Procedure, shortened: as §2

[20] = test system: kochia; assay: Test C postemergence; assay type: in vivo, Bassia scoparia; conditions: 10 days, 0 to 100 scale (0 no effect, 100 complete control)
Procedure, shortened: as §2

[21] = test system: corn; assay: Test C postemergence; assay type: in vivo, Zea mays; conditions: 10 days, 0 to 100 scale (0 no effect, 100 complete control)
Procedure, shortened: as §2

[22] = test system: green foxtail; assay: Test C postemergence; assay type: in vivo, Setaria viridis; conditions: 10 days, 0 to 100 scale (0 no effect, 100 complete control)
Procedure, shortened: as §2

[23] = test system: barnyardgrass; assay: Test C postemergence; assay type: in vivo, Echinochloa crusgalli; conditions: 10 days, 0 to 100 scale (0 no effect, 100 complete control)
Procedure, shortened: as §2

[24] = test system: ragweed; assay: Test C preemergence; assay type: in vivo, Ambrosia artemisiifolia
Procedure, shortened: as §2

[25] = test system: oat, wild; assay: Test C preemergence; assay type: in vivo, Avena fatua
Procedure, shortened: as §2

[26] = test system: blackgrass; assay: Test C preemergence; assay type: in vivo, Alopecurus myosuroides
Procedure, shortened: as §2

[27] = test system: corn; assay: Test C preemergence; assay type: in vivo, Zea mays
Procedure, shortened: as §2

[28] = test system: oat, wild; assay: Test C postemergence; assay type: in vivo, Avena fatua; conditions: 10 days, 0 to 100 scale (0 no effect, 100 complete control)
Procedure, shortened: as §2

[29] = 500 g ai/ha, preemergence, 0 to 100 scale (0 no effect, 100 complete control)
[30] = Preemergence, 125 g ai/ha, 0 to 100 scale, 0 no effect, 100 complete control

COC(=O)N(C)c1ncn(-c2cccc(C(=O)N3C[C@H](C)Oc4c(C)cccc43)c2)n1 [Compound 300]
0: Plant response rating, Barnyardgrass (Flood) [1] | Plant response rating, Rice (Flood) [2] | Plant response rating, Sedge, Umbrella (Flood) [3] | Plant response rating, Ducksalad (Flood) [4]

CC(C)c1ncn(-c2ccc(OS(=O)(=O)C(F)(F)F)c(C(=O)N3C[C@H](C)Oc4c(Cl)cccc43)c2)n1 [Compound 339]
60: Plant response rating, Galium ([7]; Postemergence, 125 g ai/ha) | Plant response rating, Kochia ([20]; 500 g ai/ha, postemergence)
20: Plant response rating, Soybean [9] | Plant response rating, Ryegrass, Italian ([15]; 500 g ai/ha, postemergence) | Plant response rating, Ryegrass, Italian [16, 30]
10: Plant response rating, Horseweed ([5]; 500 g ai/ha, postemergence) | Plant response rating, Ragweed ([19]; 500 g ai/ha, postemergence) | Plant response rating, Foxtail, Green ([22]; 500 g ai/ha, postemergence) | Plant response rating, Barnyardgrass ([23]; 500 g ai/ha, postemergence) | Plant response rating, Barnyardgrass ([23]; Postemergence, 125 g ai/ha)
70: Plant response rating, Pigweed, Palmer ([14]; 500 g ai/ha, postemergence)
50: Plant response rating, Galium ([7]; 500 g ai/ha, postemergence) | Kochia plant response rating [8, 29] | Plant response rating, Pigweed, Palmer ([14]; Postemergence, 125 g ai/ha)
0: Plant response rating, Horseweed ([5]; Postemergence, 125 g ai/ha) | Barnyardgrass plant response rating [6, 29] | Plant response rating, Barnyardgrass [6, 30] | Plant response rating, Kochia [8, 30] | Foxtail, Green plant response rating [10, 29] | Plant response rating, Foxtail, Green [10, 30] | Wheat plant response rating [11, 29] | Plant response rating, Wheat [11, 30] | Pigweed, Palmer plant response rating [12, 29] | Plant response rating, Pigweed, Palmer [12, 30] | Plant response rating, Blackgrass ([13]; 500 g ai/ha, postemergence) | Plant response rating, Blackgrass ([13]; Postemergence, 125 g ai/ha) | Plant response rating, Ryegrass, Italian ([15]; Postemergence, 125 g ai/ha) | Plant response rating, Wheat ([17]; 500 g ai/ha, postemergence) | Plant response rating, Wheat ([17]; Postemergence, 125 g ai/ha) | Soybean plant response rating [18, 29] | Plant response rating, Soybean [18, 30] | Plant response rating, Ragweed ([19]; Postemergence, 125 g ai/ha) | Plant response rating, Corn ([21]; 500 g ai/ha, postemergence) | Plant response rating, Corn ([21]; Postemergence, 125 g ai/ha) | Plant response rating, Foxtail, Green ([22]; Postemergence, 125 g ai/ha) | Ragweed plant response rating [24, 29] | Plant response rating, Ragweed [24, 30] | Oat, Wild plant response rating [25, 29] | Plant response rating, Oat, Wild [25, 30] | Blackgrass plant response rating [26, 29] | Plant response rating, Blackgrass [26, 30] | Corn plant response rating [27, 29] | Plant response rating, Corn [27, 30] | Plant response rating, Oat, Wild ([28]; 500 g ai/ha, postemergence) | Plant response rating, Oat, Wild ([28]; Postemergence, 125 g ai/ha)
30: Plant response rating, Kochia ([20]; Postemergence, 125 g ai/ha)
80: Ryegrass, Italian plant response rating [16, 29]
